Reference: paper PMC11274883, “Anticancer Effect of Pt^[sequence], Pt^II5MESS, Pt^II56MESS and Their Platinum(IV)-Dihydroxy Derivatives against Triple-Negative Breast Cancer and Cisplatin-Resistant Colorectal Cancer” (Cancers, 2024)

Columns and labels:
Type in all cases: cell-based
A2780 = experiment: WST-1 cytotoxicity, 72 h
Description: (§1) Cells were seeded in 96-well flat-bottom culture plates at a concentration of 1000 cells per well. […] After 72 h, the medium was removed and replaced with new medium. The cell viability reagent WST-1 (10 µL, Roche Diagnostics, Indianapolis, IN, USA) was added to each well. After an hour, the absorbance was measured at 450 nm using a versatile microplate reader (Bio-strategy, Campbellfield, VIC, Australia). Three separate experiments were performed, each with n = 3 replicates. GraphPad prism 10 was used to calculate apparent IC50 values using the nonlinear regression model Y = Bottom + (Top-Bottom)/(1 + 10^(X-LogIC50)) where Top and bottom are plateaus in the y-axis (% survival).

ADDP = experiment: WST-1 cytotoxicity, 72 h
Description: as §1

HT29 = experiment: WST-1 cytotoxicity, 72 h
Description: as §1

MCF−7 = experiment: WST-1 cytotoxicity, 72 h
Description: as §1

MDA−MB−231 = experiment: WST-1 cytotoxicity, 72 h
Description: as §1

HT29 cells [1] = experiment: DCFDA cellular ROS detection assay; details: complexes at IC50, TBHP 20 µM
Description: DCFDA/H2DCFDA-cellular ROS Assay Kit (Abcam, Cambridge, MA, USA) was used to investigate the production of ROS in treated cells, as previously described. MDA−MB−231 or HT29 cells were seeded at a total concentration of 2500 cells/well in 96-well plates and incubated overnight. DMEM was then removed, and cells washed with 1× kit buffer, and stained with 25 µM 2′,7′-dichlorofluorescein diacetate (DCFH-DA) for 45 min. […] After that, the plates were scanned using the Glo-Max®-Multimode microplate reader (Promega Corporation, Alexandra, VIC, Australia) at an excitation/emission of 485/535 nm to detect fluorescence (relative fluorescence units, or RFU) at various time points. A positive control was generated using 20 µM tert-butyl hydroperoxide (TBHP), and the same procedure was applied with DCFDA. Three independent experiments in triplicates were implemented.

HT29 cells [2] = experiment: Western blot protein expression; details: HT29, IC50, 72 h
Description: (§2) Protein extraction was then performed on ice. Media were collected in Eppendorf tubes, and centrifuged at 500× g for 5 min at 4 °C. Meanwhile, 200 µL of lysis RIPA buffer, made up of 150 mM NaCl, 50 mM Tris-HCl, pH 8.0, 0.1% Triton X-100, 0.5% sodium deoxycholate, 0.1% SDS and 1 mM sodium orthovanadate, was added to each well, the cells were scrapped into the buffer, and added to the media-derived pellets. The tubes were placed on the shaker for 10 min at 4 °C. Then, cell extracts were centrifuged at 12,000× g for 15 min at 4 °C, and the supernatants (containing the proteins) were collected. The Bio-Rad-DC protein assay (Bio-Rad, Hercules, CA, USA) was used to assess protein content. Laemmli protein sample buffer (4×) with β-mercaptoethanol (9%) was used to prepare a final protein concentration of 20 µg. The samples were then heated at 100 °C for 5 min. A final volume of 30 µL of each sample was added per well and subjected to SDS-PAGE using Bolt 4–12% Bis-Tris gel (Thermo Fisher, Eugene, OR, USA) at 80 V for 30 min and then 120 V for 60 min with PageRuler™ Prestained Protein or SeeBlue Prestained Protein Ladder (Thermo Fisher, Eugene, OR, USA). Proteins were subsequently transferred to a 0.2 µm PVDF membrane (Amersham, Cytiya) using a semi-dry blot transfer. The membrane was then blocked in 5% BSA in TBST, for 1 h and probed overnight at 4 °C with primary antibodies against several cell proliferation, apoptotic, anti-apoptotic, microtubule and autophagic protein markers listed in Table S7 as per the manufacturer’s protocol. The primary antibody was then removed, washed three times for 10 min with TBST and then membranes were treated with either mouse or rabbit HRP-coupled secondary antibodies (1/3000) for 1 h and 30 min. Protein band detection was then performed using the chemiluminescence ECL kit (Thermo Fisher, Eugene, OR, USA). Blot images were obtained using the Odyssey® FC imaging system (LI-COR Biosciences, Lincoln, NE, USA) and band intensities were quantified relatively to glyceraldehyde-3-phosphate dehydrogenase (GAPDH) and then normalised each replicate gel to its corresponding no treatment control using the ImageJ v1.53t software (National Institutes of Health, Bethesda, MD, USA). Each marker results from the same experiment or parallel experiment where the gels were processed in parallel. Three independent experiments per marker were conducted.

MDA−MB−231 cells = experiment: Western blot protein expression; details: MDA−MB−231, IC50, 72 h
Description: as §2

[3] = representative blot Figure S30G
[4] = representative blot Figure S30H

Structure (SMILES): Cc1cc2cccnc2c2ncccc12.N[C@H]1CCCC[C@@H]1N.O=[N+]([O-])[O-].O=[N+]([O-])[O-].[Pt+2] [Pt^II5MESS, [Pt(5-methyl-1,10-phenanthroline)(1S,2S-diaminocyclohexane)](NO3)2]
- potency relative to cisplatin (A2780; A2780, 72 h): 33 fold
- IC50 (A2780; A2780, 72 h, mean ± SEM): 650 ± 1710 nM
- Selective cytotoxicity index (SCI) (A2780; IC50 MCF10A/IC50 A2780): 1.82
- potency relative to cisplatin (ADDP; ADDP, 72 h): 85 fold
- IC50 (ADDP; ADDP, 72 h, mean ± SEM): 1320 ± 1330 nM
- Selective cytotoxicity index (SCI) (ADDP; IC50 MCF10A/IC50 ADDP): 0.89
- potency relative to cisplatin (HT29; HT29, 72 h): 149 fold
- IC50 (HT29; HT29, 72 h, mean ± SEM): 550 ± 1420 nM
- Selective cytotoxicity index (SCI) (HT29; IC50 MCF10A/IC50 HT29): 2.15
- Selective cytotoxicity index (SCI) (MCF−7; IC50 MCF10A/IC50 MCF−7): 1.37
- potency relative to cisplatin (MCF−7; MCF−7, 72 h): 38 fold
- IC50 (MCF−7; MCF−7, 72 h, mean ± SEM): 860 ± 1670 nM
- Selective cytotoxicity index (SCI) (MDA−MB−231; IC50 MCF10A/IC50 MDA−MB−231): 2.27
- potency relative to cisplatin (MDA−MB−231; MDA−MB−231, 72 h): 25 fold
- IC50 (MDA−MB−231; MDA−MB−231, 72 h, mean ± SEM): 520 nM
- ROS production (HT29 cells [1]; HT29, 24 h): 278.00 RFU
- ROS production (HT29 cells [1]; HT29, 48 h): 362.89 RFU
- ROS production (HT29 cells [1]; HT29, 72 h): 404.44 RFU
- β-actin/GAPDH normalized to control (1) (HT29 cells [2]; representative blot Figure S28A): 0.2979
- β-tubulin/GAPDH normalized to control (1) (HT29 cells [2]; representative blot Figure S28B): 0.1238
- α-tubulin/GAPDH normalized to control (1) (HT29 cells [2]; representative blot Figure S28C): 0.06789
- p-AKT/AKT/GAPDH normalized to control (1) (HT29 cells [2]; representative blot Figure S29A): 0.07338
- p-ERK/ERK/GAPDH normalized to control (1) (HT29 cells [2]; representative blot Figure S29B): 0.7076
- p53/GAPDH normalized to control (1) (HT29 cells [2]; representative blot Figure S29C): 1.275
- p21/GAPDH normalized to control (1) (HT29 cells [2]; representative blot Figure S29D): 1.147
- Bax/GAPDH normalized to control (1) (HT29 cells [2]; representative blot Figure S30A): 1.624
- Bcl2/GAPDH normalized to control (1) (HT29 cells [2]; representative blot Figure S30B): 0.09591
- Cyt C/GAPDH normalized to control (1) (HT29 cells [2]; representative blot Figure S30C): 3.741
- Procaspase 8/GAPDH normalized to control (1) (HT29 cells [2]; representative blot Figure S30D): 0.2934
- Cleaved BID/GAPDH normalized to control (1) (HT29 cells [2]; representative blot Figure S30E): 1.69
- Procaspase 9/GAPDH normalized to control (1) (HT29 cells [2]; representative blot Figure S30F): 0.1393
- Cleaved caspase 3/GAPDH normalized to control (1) (HT29 cells [2]; [3]): 10.88
- Procaspase 3/GAPDH normalized to control (1) (HT29 cells [2]; [3]): 0.7678
- Cleaved PARP-1/GAPDH normalized to control (1) (HT29 cells [2]; [4]): 11.42
- PARP-1/GAPDH normalized to control (1) (HT29 cells [2]; [4]): 0.2554
- Beclin1/GAPDH normalized to control (1) (HT29 cells [2]; representative blot Figure S31A): 3.11
- ATG5/GAPDH normalized to control (1) (HT29 cells [2]; representative blot Figure S31B): 0.9969
- ATG16L1/GAPDH normalized to control (1) (HT29 cells [2]; representative blot Figure S31C): 1.285
- ATG9A/GAPDH normalized to control (1) (HT29 cells [2]; representative blot Figure S31D): 0.4486
- ATG4B/GAPDH normalized to control (1) (HT29 cells [2]; representative blot Figure S31E): 0.7306
- LC3B/GAPDH normalized to control (1) (HT29 cells [2]; representative blot Figure S31F): 1.207
- β-actin/GAPDH normalized to control (1) (MDA−MB−231 cells; representative blot Figure S24A): 0.7082
- β-tubulin/GAPDH normalized to control (1) (MDA−MB−231 cells; representative blot Figure S24B): 0.4163
- α-tubulin/GAPDH normalized to control (1) (MDA−MB−231 cells; representative blot Figure S24C): 0.6399
- p-AKT/AKT/GAPDH normalized to control (1) (MDA−MB−231 cells; representative blot Figure S25A): 0.5388
- p-ERK/ERK/GAPDH normalized to control (1) (MDA−MB−231 cells; representative blot Figure S25B): 0.5947
- p53/GAPDH normalized to control (1) (MDA−MB−231 cells; representative blot Figure S25C): 0.7809
- p21/GAPDH normalized to control (1) (MDA−MB−231 cells; representative blot Figure S25D): 2.478
- Bax/GAPDH normalized to control (1) (MDA−MB−231 cells; representative blot Figure S26A): 1.886
- Bcl2/GAPDH normalized to control (1) (MDA−MB−231 cells; representative blot Figure S26B): 0.5074
- Cytochrome C/GAPDH normalized to control (1) (MDA−MB−231 cells; representative blot Figure S26C): 1.513
- Procaspase 8/GAPDH normalized to control (1) (MDA−MB−231 cells; representative blot Figure S26D): 0.5099
- Cleaved BID/GAPDH normalized to control (1) (MDA−MB−231 cells; representative blot Figure S26E): 14.29
- Procaspase 9/GAPDH normalized to control (1) (MDA−MB−231 cells; representative blot Figure S26F): 0.3101
- Procaspase 3/GAPDH normalized to control (1) (MDA−MB−231 cells; representative blot Figure S26G): 0.5405
- PARP-1/GAPDH normalized to control (1) (MDA−MB−231 cells; representative blot Figure S26H): 0.7693
- Beclin1/GAPDH normalized to control (1) (MDA−MB−231 cells; representative blot Figure S27A): 2.588
- ATG5/GAPDH normalized to control (1) (MDA−MB−231 cells; representative blot Figure S27B): 0.5948
- ATG16L1/GAPDH normalized to control (1) (MDA−MB−231 cells; representative blot Figure S27C): 0.4742
- ATG9A/GAPDH normalized to control (1) (MDA−MB−231 cells; representative blot Figure S27D): 0.2882
- ATG4B/GAPDH normalized to control (1) (MDA−MB−231 cells; representative blot Figure S27E): 1.839
- LC3B/GAPDH normalized to control (1) (MDA−MB−231 cells; representative blot Figure S27F): 0.9366
